Reference: US20090023645A1, “AIB1, a novel steroid receptor co-activator” (The Government of the United States of America as …, priority 1997, published 2009)

What was measured:
metastatic tumor = assay: tamoxifen treatment of a patient whose metastatic breast tumor showed high AIB1 copy number; format: in vivo; details: one post-menopausal patient, ER/PR positive metastatic tumor with high AIB1 copy number
recurrent breast cancer = assay: response to tamoxifen therapy in patients with recurrent breast cancer and ER-positive primary tumors; format: in vivo
Experimental: Loss of estrogen receptor in recurrent breast caner is also associated with poor response to endocrine therapy. […] The frequency of hormone receptor status changes between primary and recurrent tumors and whether such a change might explain unresponsiveness to endocrine therapy was examined. Primary breast cancer samples and matched asynchronous recurrences were studied from 50 patients who had not received any adjuvant therapy. ER and progesterone receptor (PR) status was determined immunohistochemically from histologically representative formalin-fixed paraffin-embedded tumor samples. ER status was ascertained by mRNA in situ hybridization. Thirty-five (70%) of 50 primary tumors were positive for ER and 30 (60%) for PR. Hormone receptor status of the recurrent tumor differed from that of the primary tumor in 18 cases (36%). Discordant cases were due to the loss of ER (n=6), loss of PR (n=6), or loss of both receptors (n=6). Receptor-negative primary tumors were always accompanied by receptor-negative recurrences. Among 27 patients with ER-positive primary tumors, loss of ER was a significant predictor (P=0.0085) of poor response to subsequent endocrine therapy. […] Loss of ER expression in recurrent breast cancer predicts poor response to endocrine therapy in primarily ER-positive patients.

ER = assay: transient transfection ER reporter (luciferase) transcription assay in COS-1 cells; format: cell-based; details: 100 nM 4-hydroxytamoxifen in place of 17β-estradiol
Experimental: COS-1 cells were transiently transfected with 250 ng ER expression vector (pHEGO-hyg), 10 ng of luciferase reporter plasmid (pGL3.luc.3ERE or 10 ng pGL3 lacking ERE) and increasing amounts of pcDNA3.1-AIB1 and incubated in the absence (open bars) or presence of 10 nM 17β-stradiol (E2, solid bars) or 100 nM 4-hydroxytamoxifen (hatched bars). Luciferase activity was expressed in relative luminescence units (RLU). The data are the mean of three determinations from one of four replicate experiments. Error bars indicate one standard deviation.
To determine whether expression of AIB1 increases ER ligand-dependent transactivation, transient transfection assays were performed. The effect of increasing levels of AIB1 on transcription of an ER dependent reporter was measured. […] This effect was not observed when the estrogen antagonist, 4-hydroxytamoxifen (4-OHT), was substituted for 17β-estradiol or when the estrogen response element (ERE) was removed from the reporter plasmid (FIG. 3).
To determine the effect of AIB1 on estrogen-dependent transcription, an ER reporter plasmid can be used. […] Reporter activities were determined using the Dual-Luciferase Reporter Assay System (Promega) and the results expressed in relative luminescence units (RLU; luciferase/Renilla luciferase). pRL-CMV and pGL3-promoter were obtained from Promega. pHEGO-hyg was obtained from ATCC. […]

Compound | patient response to tamoxifen treatment (metastatic tumor) | response rate to tamoxifen therapy (recurrent breast cancer; patients whose recurrent tumors retained ER expression (14 of 19)) [%] | response rate to tamoxifen therapy (recurrent breast cancer; patients with lost ER expression in the recurrent tumor (one of eight)) [%] | AIB1 dose dependent increase in transcription when the ligand is substituted for 17β-estradiol (ER)
CC/C(=C(\c1ccccc1)c1ccc(OCCN(C)C)cc1)c1ccccc1 [tamoxifen] | responded favorably | 74 | 12.5 | 
4-hydroxytamoxifen |  |  |  | not observed
